Experiments:
[1] = test system: human lung cancer cells (A549 tumor cell line); experiment: Biodistribution in lung tumor-bearing nude mice; type: in vivo, athymic nude mice; conditions: for Biodistribution Blood / Biodistribution Brain / Biodistribution Heart / Biodistribution Intestine / Biodistribution Kidney / Biodistribution Liver / Biodistribution Lung / Biodistribution Muscle / Biodistribution Spleen / Biodistribution Stomach / Biodistribution Thyroid / Biodistribution Tumor / Tumor/Blood / Tumor/Lung / Tumor/Muscle: intravenously
Experimental: Female athymic nude mice (NCr-nu/nu, NCI, Bethasda, Md.) were inoculated with human lung cancer cells (A549 tumor cell line, 3×10^6 cells/mouse, intramuscular) by one author in the mid-dorsal region. After the tumor reached 6 mm, separate biodistribution studies using ^99mTc-EC-DG and 18F-FDG were conducted. Each received ^99mTc-EC-DG or 18F-FDG intravenously (n=3/time point). The injection activity was 1-3 μCi/mouse. The injected mass of ^99mTc-EC-DG was 0.2 mg/rodent.

[2] = In vitro cell culture of ^99mTc-EC-DG with or without transition chelators; type: cell-based; conditions: kit formulation
Excerpt: It may also be important to include an antioxidant and a transition chelator in the composition to prevent oxidation of the ethylenedicysteine. For example, the antioxidant may be vitamin C (ascorbic acid). However, other antioxidants known to those of ordinary skill in the art, such as tocopherol, pyridoxine, thiamine, or rutin, may also be used. Any transition chelator known to those of ordinary skill in the art may be used in conjunction with the present invention. Examples of transition chelators include glucoheptonate, gluconate, glucarate, citrate, and tartarate.

[3] = test system: 13762 tumor cell line mammary tumor; experiment: Gamma scintigraphic imaging in Fischer 344 rats with 13762 mammary tumor; type: in vivo; conditions: 0.5, 2 and 4 hours after i.v. injection of 300 μCi
Experimental: Female Fischer 344 rats (250-275 g each) (Harlan, Inc., Indianapolis, Ind.) were inoculated with mammary tumor cells by one author from the 13762 tumor cell line (s.c. 10^6 cells/rat, a tumor cell line specific to Fischer rats). After 8-10 days, tumor volumes of 0.3-0.6 cm were measured. Scintigraphic images were obtained 0.5, 2 and 4 hours after i.v. injection of 300 μCi of ^99mTc-EC or ^99mTc-EC-DG (n=3/agent, total 6 rats). ROI between tumor tissue and muscle (at symmetric site) was used to determine tumor/non-tumor ratios. The smallest tumor volume that could be detected by ^99mTc-EC-DG was 3 mm.

O=C(NC1C(O)OC(CO)C(O)C1O)C1C[S][99Tc]23(=[O])[S]CC(C(=O)NC4C(O)OC(CO)C(O)C4O)[N]2CC[N]13 (stereo not drawn) [^99mTc-EC-DG]
Biodistribution Blood ([1]; 30 min): 1.607 ± 0.389 % of injected dose per gram of tissue weight
Biodistribution Brain ([1]; 30 min): 0.058 ± 0.008 % of injected dose per gram of tissue weight
Biodistribution Heart ([1]; 30 min): 0.611 ± 0.193 % of injected dose per gram of tissue weight
Biodistribution Intestine ([1]; 30 min): 0.510 ± 0.093 % of injected dose per gram of tissue weight
Biodistribution Kidney ([1]; 30 min): 6.726 ± 1.842 % of injected dose per gram of tissue weight
Biodistribution Liver ([1]; 30 min): 5.674 ± 2.089 % of injected dose per gram of tissue weight
Biodistribution Lung ([1]; 30 min): 1.048 ± 0.259 % of injected dose per gram of tissue weight
Biodistribution Muscle ([1]; 30 min): 0.264 ± 0.072 % of injected dose per gram of tissue weight
Biodistribution Spleen ([1]; 30 min): 3.240 ± 1.709 % of injected dose per gram of tissue weight
Biodistribution Stomach ([1]; 30 min): 0.540 ± 0.113 % of injected dose per gram of tissue weight
Biodistribution Thyroid ([1]; 30 min): 0.929 ± 0.212 % of injected dose per gram of tissue weight
Biodistribution Tumor ([1]; 30 min): 0.787 ± 0.163 % of injected dose per gram of tissue weight
Tumor/Blood ([1]; 30 min): 0.499 ± 0.022
Tumor/Lung ([1]; 30 min): 0.769 ± 0.047
Tumor/Muscle ([1]; 30 min): 3.352 ± 0.749
Biodistribution Blood ([1]; 2 h): 0.977 ± 0.267 % of injected dose per gram of tissue weight
Biodistribution Brain ([1]; 2 h): 0.042 ± 0.006 % of injected dose per gram of tissue weight
Biodistribution Heart ([1]; 2 h): 0.336 ± 0.080 % of injected dose per gram of tissue weight
Biodistribution Intestine ([1]; 2 h): 0.417 ± 0.110 % of injected dose per gram of tissue weight
Biodistribution Kidney ([1]; 2 h): 5.687 ± 1.540 % of injected dose per gram of tissue weight
Biodistribution Liver ([1]; 2 h): 5.807 ± 1.708 % of injected dose per gram of tissue weight
Biodistribution Lung ([1]; 2 h): 0.721 ± 0.210 % of injected dose per gram of tissue weight
Biodistribution Muscle ([1]; 2 h): 0.148 ± 0.039 % of injected dose per gram of tissue weight
Biodistribution Spleen ([1]; 2 h): 4.205 ± 1.374 % of injected dose per gram of tissue weight
Biodistribution Stomach ([1]; 2 h): 0.439 ± 0.138 % of injected dose per gram of tissue weight
Biodistribution Thyroid ([1]; 2 h): 0.665 ± 0.207 % of injected dose per gram of tissue weight
Biodistribution Tumor ([1]; 2 h): 0.415 ± 0.123 % of injected dose per gram of tissue weight
Tumor/Blood ([1]; 2 h): 0.424 ± 0.022
Tumor/Lung ([1]; 2 h): 0.587 ± 0.046
Tumor/Muscle ([1]; 2 h): 2.754 ± 0.120
Biodistribution Blood ([1]; 4 h): 0.787 ± 0.152 % of injected dose per gram of tissue weight
Biodistribution Brain ([1]; 4 h): 0.042 ± 0.006 % of injected dose per gram of tissue weight
Biodistribution Heart ([1]; 4 h): 0.318 ± 0.071 % of injected dose per gram of tissue weight
Biodistribution Intestine ([1]; 4 h): 0.374 ± 0.073 % of injected dose per gram of tissue weight
Biodistribution Kidney ([1]; 4 h): 4.318 ± 0.890 % of injected dose per gram of tissue weight
Biodistribution Liver ([1]; 4 h): 6.656 ± 1.786 % of injected dose per gram of tissue weight
Biodistribution Lung ([1]; 4 h): 0.606 ± 0.128 % of injected dose per gram of tissue weight
Biodistribution Muscle ([1]; 4 h): 0.147 ± 0.022 % of injected dose per gram of tissue weight
Biodistribution Spleen ([1]; 4 h): 5.933 ± 3.194 % of injected dose per gram of tissue weight
Biodistribution Stomach ([1]; 4 h): 0.541 ± 0.119 % of injected dose per gram of tissue weight
Biodistribution Thyroid ([1]; 4 h): 0.692 ± 0.119 % of injected dose per gram of tissue weight
Biodistribution Tumor ([1]; 4 h): 0.414 ± 0.161 % of injected dose per gram of tissue weight
Tumor/Blood ([1]; 4 h): 0.502 ± 0.120
Tumor/Lung ([1]; 4 h): 0.640 ± 0.120
Tumor/Muscle ([1]; 4 h): 2.795 ± 0.982
tumor/muscle and tumor/brain ratios, ^99mTc-EC-DG versus 18F-FDG ([1]; as a function of time): higher tumor/muscle and tumor/brain ratios
stability with or without transition chelators (gluconate and glucarate) [2]: does not interfere with the stability
organs visualized [3]: Heart, kidneys, liver, and bladder were visualized

From patent US20040166058A1, “Ethylenedicysteine (EC)-drug conjugates, compositions and methods for tissue specific disease imaging” (Board of Regents, The University of Texas System, priority 2002, published 2004)
